Molecules are shown by their SMILES.

Test [1] relates to Penicillin resistenten Staph. aureus. The conditions noted are these: comparison with Clavulansäure; from earlier filing EP 89117433.6; cited from earlier work.
Another test relates to E. coli TEM 1. Description: agar diffusion test, inhibition zone diameter (Hemmhof), inhibitor alone and combined with Cefaclor. The class given is cell-based, E. coli W 311O3 R6K (TEM 1). The conditions noted are these: for zone of inhibition at 10 µg/disc: Escherichia coli, TEM1, read-out: Hemmhofdurchmesser mm (E. coli TEM 1) I (10 mcg); for Hemmhofzuwachs, d.h. die Schutzwirkung: increase of zone with Cefaclor versus alone; for Eigenwirkung als Antibiotika: inhibitor alone; for Wirkung als Betalactamasehemmer gegen E. coli TEM 1: protection of Cefaclor against the bacterial enzyme. An excerpt: "like" bedeutet gleiche absolute Konfiguration zweier benachbarter Chiralitätszentren. Als Testkeim wurde ein besonders starker Betalactamase-Bildner verwendet. E. coli W 311O3 R6K (TEM 1) wurde deshalb mehrfach in einer Kulturlösung mit 2O mcg/ml Cefaclor bebrütet. Cefaclor allein (3O mcg) ergab einen Hemmhof von 16 mm, mit 1O mcg Clavulansäure kombiniert einen solchen von 22 mm Durchmesser.

A further test deals with Pseudomonas aeruginosa. The conditions noted are these: comparison with Clavulansäure; from earlier filing EP 89117433.6; cited from earlier work.
The target in test [2] is T1, Cephalosporinasen aus Enterobacter cloacae (Enterobacter cloacae, UniProt P05364).
T1 construct: dagegen ist auch gegen diese Keime als Betalactamasehemmer wirksam; endogenous in cells
The conditions noted are these: reported in Amer. J. Med. 79 (suppl. 5B), 194 (1985); cited from earlier work.

Test [3] has as its target T2, Cephalosporinasen aus Pseudomonas aeruginosa (Pseudomonas aeruginosa, UniProt P24735).
T2 construct: dagegen ist auch gegen diese Keime als Betalactamasehemmer wirksam; endogenous in cells
The conditions noted are these: reported in Amer. J. Med. 79 (suppl. 5B), 194 (1985); cited from earlier work.

For test [4], the target named is T2, Cephalosporinasen aus Pseudomonas aeruginosa. Description: beta-lactamase inhibitor activity against cephalosporinase producer. The conditions noted are these: requires partner antibiotic able to enter the bacterium.
Test [5] deals with T1, Cephalosporinasen aus Enterobacter cloacae. Described as above. The conditions noted are these: requires partner antibiotic able to enter the bacterium.
In the next test the test system is E. cloacae. The test can be described thus: inhibition zone diameter, third-generation cephalosporin combined with inhibitor. The class given is cell-based. An excerpt:
Die erfindungsgemässen Verbindungen sind in der Lage, schon in geringen Konzentrationen die Hemmwirkung aller untersuchter Penicilline wie z. B. Amoxycillin, Piperacillin, Mezlocillin oder Cephalosporine wie z. B. Cefaclor, Cefoperazon gegen Betalactamase-bildende Bakterien zu verstärken. Auch gemeinhin als Betalactamase-stabile geltende Cephalosporine der dritten Generation wie z. B. Cefotaxim oder Ceftriaxon (je 3O mcg) ergaben in der Kombination mit Ie (1O mcg) erstmals deutliche Hemmhöfe vom Durchmesser 27 bzw. 26 mm gegen E. cloacae. Die erfindungsgemässen Verbindungen sind stark wirksam gegen Penicillinasen und Cephalosporinasen.

T2 sequence (P24735 27-397): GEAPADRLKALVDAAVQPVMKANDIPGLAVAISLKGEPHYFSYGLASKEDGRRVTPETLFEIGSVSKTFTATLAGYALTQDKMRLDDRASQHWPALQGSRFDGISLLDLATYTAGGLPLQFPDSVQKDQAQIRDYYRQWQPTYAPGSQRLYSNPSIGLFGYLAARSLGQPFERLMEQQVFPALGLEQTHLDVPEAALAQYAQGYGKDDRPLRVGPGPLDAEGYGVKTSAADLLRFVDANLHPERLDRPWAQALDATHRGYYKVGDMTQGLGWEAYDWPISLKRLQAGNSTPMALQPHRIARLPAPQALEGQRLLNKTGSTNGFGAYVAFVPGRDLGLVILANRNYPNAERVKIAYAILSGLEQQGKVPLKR
T1 sequence (P05364 21-381): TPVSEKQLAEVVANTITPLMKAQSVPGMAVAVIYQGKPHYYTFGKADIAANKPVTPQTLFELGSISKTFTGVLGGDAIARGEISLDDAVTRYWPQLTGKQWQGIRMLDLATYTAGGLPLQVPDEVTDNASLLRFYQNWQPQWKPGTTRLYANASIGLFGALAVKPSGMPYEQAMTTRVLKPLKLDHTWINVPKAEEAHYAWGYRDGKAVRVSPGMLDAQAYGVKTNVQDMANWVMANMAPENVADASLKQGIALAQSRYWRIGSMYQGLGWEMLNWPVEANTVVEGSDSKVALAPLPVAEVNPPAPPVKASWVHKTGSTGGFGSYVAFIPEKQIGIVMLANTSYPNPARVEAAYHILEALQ

With `CC(C)(C)C1=C(C(=O)O)N2C(=O)[C@H](CO)[C@H]2O1` (racemic) [Ia, 2-tert-Butyl-6-hydroxymethyloxapenem-3-carbonsäure (K-Salz)], the “Wirksamkeit in der Kombination mit Mezlocillin” value in test [1] was “wirksamer als Clavulansäure”. Further, in the test on E. coli TEM 1, the zone of inhibition at 10 µg/disc stood at 17 mm; the “Hemmhofzuwachs, d.h. die Schutzwirkung” value is given as “vergleichsweise gering”; the “Eigenwirkung als Antibiotika” value is on record as “gute Eigenwirkung”. Also, in the test with Pseudomonas aeruginosa, the “Wirksamkeit in der Kombination mit Mezlocillin” value is reported as “wirksamer als Clavulansäure”.

In the case of `C[C@H](O)[C@H]1C(=O)N2C(C(=O)O)=C(C(C)(C)C)O[C@H]12` (racemic) [Ib, racemischer trans-2-tert-Butyl-6-(unlike-hydroxyethyl)oxapenem-3-carbonsäure], in the test with E. coli TEM 1, the zone of inhibition at 10 µg/disc came out at 0 mm and the “Wirkung als Betalactamasehemmer gegen E. coli TEM 1” value is “besonders gute Wirkung”.

Consider `C[C@H](O)[C@H]1C(=O)N2C(C(=O)O)=C(C(C)(C)C)O[C@@H]12` (racemic) [Ic, racemischer cis-2-tert-Butyl-6-(unlike-hydroxyethyl)oxapenem-3-carbonsäure], for which the zone of inhibition at 10 µg/disc with E. coli TEM 1 was 9 mm.

As to `N[C@@H](C(=O)N[C@@H]1C(=O)N2C(C(=O)O)=C(Cl)CS[C@H]12)c1ccccc1` [Cefaclor, reference compound], in the test on E. coli TEM 1 (Cefaclor allein (3O mcg)), the Hemmhof came out at 16 mm.

Turning to `O=C(O)[C@H]1/C(=C/CO)O[C@@H]2CC(=O)N21` [Clavulansäure], the “Wirkung gegen Cephalosporinasen” value in test [2] and in test [3] was “nicht” each time. The “Hemmhof Durchmesser” value in the test on E. coli TEM 1 (Cefaclor 3O mcg combined with 1O mcg Clavulansäure) was 22 mm.

As for `C[C@@H](O)[C@H]1C(=O)N2C(C(=O)O)=C(C(C)(C)C)O[C@H]12` [Id], in the test on E. coli TEM 1, the zone of inhibition at 10 µg/disc was 23 mm; the “Hemmhofzuwachs, d.h. die Schutzwirkung” value is reported as “vergleichsweise gering”; the “Eigenwirkung als Antibiotika” value is “gute Eigenwirkung”.

In the case of `C[C@H](O)[C@H]1C(=O)N2C(C(=O)O)=C(C(C)(C)C)O[C@H]12` [Ie, (5R,6R)-2-tert-Butyl-((1S)-hydroxyethyl)oxapenem-3-carbonsäure (K-Salz)], the zone of inhibition at 10 µg/disc in the test on E. coli TEM 1 was found to be 0 mm. Besides, the “Wirkung als Betalactamasehemmer gegen E. coli TEM 1” value with E. coli TEM 1 was “besonders gute Wirkung”. The “Wirkung als Betalactamasehemmer” value in test [4] and in test [5] was “wirksam” in each case. In addition, the entries for the “Hemmhöfe vom Durchmesser” value in the test with E. cloacae (Cefotaxim 3O mcg combined with Ie 1O mcg) and in the test with E. cloacae (Ceftriaxon 3O mcg combined with Ie 1O mcg) were 27 mm and 26 mm, respectively.

These data come from EP0548790A1, “(1'S)-Hydroxyalkyloxapenem-3-carboxylic acids and their use as beta-lactamase inhibitors” (ELI LILLY AND COMPANY, priority 1991, dated 1993).
